{"source": "ChEMBL document CHEMBL5465560", "about": "“Selectivity Literature for EUbOPEN Chemogenomic Library” (2024)", "key": {"[1]": {"molecular_target": "Calcium/calmodulin-dependent protein kinase type II subunit gamma (Homo sapiens) (UniProt Q13555)", "sequence (Q13555 whole entry)": "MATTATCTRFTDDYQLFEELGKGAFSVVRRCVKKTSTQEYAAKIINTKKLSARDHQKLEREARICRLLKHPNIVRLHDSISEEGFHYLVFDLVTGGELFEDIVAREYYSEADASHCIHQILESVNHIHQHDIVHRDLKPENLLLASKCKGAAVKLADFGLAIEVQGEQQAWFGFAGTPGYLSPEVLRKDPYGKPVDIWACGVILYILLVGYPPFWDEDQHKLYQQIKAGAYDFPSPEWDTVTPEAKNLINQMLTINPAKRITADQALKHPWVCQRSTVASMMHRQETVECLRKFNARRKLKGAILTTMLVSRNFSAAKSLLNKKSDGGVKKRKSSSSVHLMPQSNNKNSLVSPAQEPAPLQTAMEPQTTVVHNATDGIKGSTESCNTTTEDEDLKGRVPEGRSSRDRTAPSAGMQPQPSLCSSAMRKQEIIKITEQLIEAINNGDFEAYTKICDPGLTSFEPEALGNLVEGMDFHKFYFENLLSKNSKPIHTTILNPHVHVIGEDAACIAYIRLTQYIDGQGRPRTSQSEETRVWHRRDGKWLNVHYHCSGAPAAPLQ", "assay": "Selectivity interaction (KinomeScan (DiscoverX)) EUB0000595a CAMK2G", "details": "at 10 µM"}, "[2]": {"molecular_target": "Ephrin type-A receptor 7 (Homo sapiens) (UniProt Q15375)", "sequence (Q15375 28-998 limits assumed)": "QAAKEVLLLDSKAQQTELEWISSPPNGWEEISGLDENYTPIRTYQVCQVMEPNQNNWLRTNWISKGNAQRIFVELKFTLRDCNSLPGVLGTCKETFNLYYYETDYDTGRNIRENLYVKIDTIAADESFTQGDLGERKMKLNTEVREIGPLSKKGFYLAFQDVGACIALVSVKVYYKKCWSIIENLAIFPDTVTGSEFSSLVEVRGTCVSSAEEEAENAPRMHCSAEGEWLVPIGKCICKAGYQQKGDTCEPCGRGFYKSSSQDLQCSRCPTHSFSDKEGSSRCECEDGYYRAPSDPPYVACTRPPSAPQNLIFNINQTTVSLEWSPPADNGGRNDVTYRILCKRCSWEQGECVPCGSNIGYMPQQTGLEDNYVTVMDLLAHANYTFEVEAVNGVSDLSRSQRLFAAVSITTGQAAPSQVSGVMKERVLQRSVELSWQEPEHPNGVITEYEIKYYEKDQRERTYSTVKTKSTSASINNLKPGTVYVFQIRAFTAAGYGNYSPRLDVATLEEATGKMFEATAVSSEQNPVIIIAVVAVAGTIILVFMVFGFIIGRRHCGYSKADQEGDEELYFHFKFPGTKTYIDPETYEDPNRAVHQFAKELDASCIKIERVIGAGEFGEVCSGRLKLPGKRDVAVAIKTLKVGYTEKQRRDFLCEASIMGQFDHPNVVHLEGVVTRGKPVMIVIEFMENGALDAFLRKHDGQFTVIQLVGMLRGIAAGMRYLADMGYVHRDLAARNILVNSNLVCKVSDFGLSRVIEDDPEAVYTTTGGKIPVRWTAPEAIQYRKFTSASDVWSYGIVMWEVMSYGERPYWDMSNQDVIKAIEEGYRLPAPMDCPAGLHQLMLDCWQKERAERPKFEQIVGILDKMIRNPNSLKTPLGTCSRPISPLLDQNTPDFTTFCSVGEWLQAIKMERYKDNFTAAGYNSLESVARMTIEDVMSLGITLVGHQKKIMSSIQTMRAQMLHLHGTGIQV", "assay": "Selectivity interaction (KinomeScan (DiscoverX)) EUB0000045b EPHA7"}, "[3]": {"molecular_target": "T1, Serine/threonine-protein kinase PLK4 (Homo sapiens) (UniProt O00444)", "T1 sequence (whole entry)": "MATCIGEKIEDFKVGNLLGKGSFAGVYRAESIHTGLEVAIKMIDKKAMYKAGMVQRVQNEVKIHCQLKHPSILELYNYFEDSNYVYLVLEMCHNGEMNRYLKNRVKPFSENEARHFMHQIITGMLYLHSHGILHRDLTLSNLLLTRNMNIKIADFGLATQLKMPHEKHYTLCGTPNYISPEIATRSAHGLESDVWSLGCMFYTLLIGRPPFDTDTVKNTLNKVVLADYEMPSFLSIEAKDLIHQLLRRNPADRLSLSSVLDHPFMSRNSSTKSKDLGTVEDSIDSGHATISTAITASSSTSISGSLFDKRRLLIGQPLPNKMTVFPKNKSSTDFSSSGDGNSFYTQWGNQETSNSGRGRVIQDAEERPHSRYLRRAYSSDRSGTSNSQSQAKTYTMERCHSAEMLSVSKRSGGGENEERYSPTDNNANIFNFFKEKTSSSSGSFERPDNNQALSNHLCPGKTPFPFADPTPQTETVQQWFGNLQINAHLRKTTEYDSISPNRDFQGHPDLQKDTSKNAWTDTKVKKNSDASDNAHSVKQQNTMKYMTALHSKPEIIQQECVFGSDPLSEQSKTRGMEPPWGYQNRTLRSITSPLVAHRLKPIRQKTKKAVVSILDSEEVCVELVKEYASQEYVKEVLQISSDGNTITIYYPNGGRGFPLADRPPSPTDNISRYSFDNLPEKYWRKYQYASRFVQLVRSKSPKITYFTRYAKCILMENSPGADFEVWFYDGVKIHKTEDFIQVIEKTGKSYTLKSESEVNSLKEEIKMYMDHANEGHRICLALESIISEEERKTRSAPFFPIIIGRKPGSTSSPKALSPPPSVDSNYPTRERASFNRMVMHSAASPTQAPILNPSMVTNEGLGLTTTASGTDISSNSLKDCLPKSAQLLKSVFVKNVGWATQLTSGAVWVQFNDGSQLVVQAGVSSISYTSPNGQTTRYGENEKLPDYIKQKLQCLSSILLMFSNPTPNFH", "assay": "Selectivity interaction (LanthaScreen Eu Kinase Binding Assay) EUB0001632a PLK4", "details": "at 10 µM"}, "[4]": {"molecular_target": "T2, Mitogen-activated protein kinase kinase kinase 5 (Homo sapiens) (UniProt Q99683)", "T2 sequence (whole entry)": "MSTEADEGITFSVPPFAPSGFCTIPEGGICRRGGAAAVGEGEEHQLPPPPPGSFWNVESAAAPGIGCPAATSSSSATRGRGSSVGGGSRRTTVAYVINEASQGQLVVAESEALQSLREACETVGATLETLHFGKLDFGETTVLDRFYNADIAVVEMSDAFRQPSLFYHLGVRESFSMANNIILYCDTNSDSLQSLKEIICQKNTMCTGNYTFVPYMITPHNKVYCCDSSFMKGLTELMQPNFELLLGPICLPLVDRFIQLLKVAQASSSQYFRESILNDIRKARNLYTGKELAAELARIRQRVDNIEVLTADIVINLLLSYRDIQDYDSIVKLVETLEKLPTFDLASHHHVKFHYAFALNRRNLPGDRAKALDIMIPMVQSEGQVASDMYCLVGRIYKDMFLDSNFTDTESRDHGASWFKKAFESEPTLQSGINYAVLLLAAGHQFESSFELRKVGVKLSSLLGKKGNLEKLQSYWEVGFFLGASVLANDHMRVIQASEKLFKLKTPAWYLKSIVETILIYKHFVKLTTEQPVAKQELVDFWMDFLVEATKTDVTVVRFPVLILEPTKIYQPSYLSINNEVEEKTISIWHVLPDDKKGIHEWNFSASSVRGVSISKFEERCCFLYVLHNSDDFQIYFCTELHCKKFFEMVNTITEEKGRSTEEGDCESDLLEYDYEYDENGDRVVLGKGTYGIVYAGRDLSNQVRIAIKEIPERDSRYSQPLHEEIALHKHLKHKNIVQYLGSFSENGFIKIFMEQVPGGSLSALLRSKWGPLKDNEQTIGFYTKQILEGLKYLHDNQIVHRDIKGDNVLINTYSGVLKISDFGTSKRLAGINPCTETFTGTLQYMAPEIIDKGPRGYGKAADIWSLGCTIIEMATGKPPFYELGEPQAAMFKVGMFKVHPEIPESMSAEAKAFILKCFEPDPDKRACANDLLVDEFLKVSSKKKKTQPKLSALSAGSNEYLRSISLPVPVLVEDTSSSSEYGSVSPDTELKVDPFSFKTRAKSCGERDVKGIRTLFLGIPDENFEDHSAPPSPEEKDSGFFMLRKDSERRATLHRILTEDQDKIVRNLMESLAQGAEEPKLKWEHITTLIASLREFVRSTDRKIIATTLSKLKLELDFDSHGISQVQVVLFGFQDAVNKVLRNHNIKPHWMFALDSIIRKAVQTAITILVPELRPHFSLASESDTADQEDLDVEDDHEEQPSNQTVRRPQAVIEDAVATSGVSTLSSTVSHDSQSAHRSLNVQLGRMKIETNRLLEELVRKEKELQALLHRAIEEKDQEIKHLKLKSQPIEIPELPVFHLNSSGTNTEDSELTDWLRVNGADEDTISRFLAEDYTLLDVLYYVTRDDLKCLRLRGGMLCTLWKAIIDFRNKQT", "assay": "Selectivity interaction (KinomeScan (DiscoverX)) EUB0000666a MAP3K5", "details": "at 10 µM"}, "[5]": {"molecular_target": "Serine/threonine-protein kinase WNK3 (Homo sapiens) (UniProt Q9BYP7)", "assay": "Selectivity interaction (KinomeScan (DiscoverX)) EUB0000666a WNK3", "details": "at 10 µM"}, "[6]": {"molecular_target": "Rho-associated protein kinase 1 (Homo sapiens) (UniProt Q13464)", "sequence (Q13464 2-1354 limits assumed)": "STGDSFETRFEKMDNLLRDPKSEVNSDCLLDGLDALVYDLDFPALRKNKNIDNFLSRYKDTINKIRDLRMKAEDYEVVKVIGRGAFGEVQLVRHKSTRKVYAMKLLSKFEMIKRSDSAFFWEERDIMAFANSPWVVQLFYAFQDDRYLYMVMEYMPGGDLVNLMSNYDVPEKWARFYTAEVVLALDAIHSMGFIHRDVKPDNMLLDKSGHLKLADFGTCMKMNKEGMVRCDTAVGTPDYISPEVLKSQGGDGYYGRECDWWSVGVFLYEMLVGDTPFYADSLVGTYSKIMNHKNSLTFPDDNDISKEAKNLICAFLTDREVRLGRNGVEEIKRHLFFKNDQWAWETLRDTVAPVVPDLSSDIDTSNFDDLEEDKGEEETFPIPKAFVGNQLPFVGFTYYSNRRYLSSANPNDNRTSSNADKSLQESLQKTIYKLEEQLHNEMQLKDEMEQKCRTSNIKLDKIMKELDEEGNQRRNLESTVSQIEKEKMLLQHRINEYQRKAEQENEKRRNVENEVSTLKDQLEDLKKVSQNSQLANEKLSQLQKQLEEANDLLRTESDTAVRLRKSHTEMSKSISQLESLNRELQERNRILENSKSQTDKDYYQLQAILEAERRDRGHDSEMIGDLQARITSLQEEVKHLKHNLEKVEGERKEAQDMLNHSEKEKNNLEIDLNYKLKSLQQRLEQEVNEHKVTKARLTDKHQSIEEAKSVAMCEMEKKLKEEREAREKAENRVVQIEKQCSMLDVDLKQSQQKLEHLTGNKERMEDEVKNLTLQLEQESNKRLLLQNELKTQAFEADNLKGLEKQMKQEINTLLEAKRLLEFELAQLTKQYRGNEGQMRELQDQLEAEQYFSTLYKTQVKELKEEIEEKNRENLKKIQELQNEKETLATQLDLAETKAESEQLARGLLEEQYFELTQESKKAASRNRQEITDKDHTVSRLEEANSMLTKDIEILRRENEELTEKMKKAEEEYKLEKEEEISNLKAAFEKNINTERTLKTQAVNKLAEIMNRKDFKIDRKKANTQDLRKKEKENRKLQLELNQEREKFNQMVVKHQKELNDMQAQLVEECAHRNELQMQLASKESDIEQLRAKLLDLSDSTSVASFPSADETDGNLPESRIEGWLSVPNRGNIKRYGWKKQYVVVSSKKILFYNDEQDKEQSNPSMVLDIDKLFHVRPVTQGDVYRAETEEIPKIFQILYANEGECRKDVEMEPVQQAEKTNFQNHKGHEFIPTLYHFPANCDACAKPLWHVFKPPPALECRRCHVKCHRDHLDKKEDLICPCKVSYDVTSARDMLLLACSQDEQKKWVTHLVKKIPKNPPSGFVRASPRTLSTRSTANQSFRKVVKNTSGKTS", "assay": "Selectivity interaction (KinomeScan (DiscoverX)) EUB0001049a ROCK1", "details": "at 1 µM"}, "[7]": {"molecular_target": "5-hydroxytryptamine receptor 3A (Homo sapiens, UniProt P46098)", "sequence (P46098 whole entry)": "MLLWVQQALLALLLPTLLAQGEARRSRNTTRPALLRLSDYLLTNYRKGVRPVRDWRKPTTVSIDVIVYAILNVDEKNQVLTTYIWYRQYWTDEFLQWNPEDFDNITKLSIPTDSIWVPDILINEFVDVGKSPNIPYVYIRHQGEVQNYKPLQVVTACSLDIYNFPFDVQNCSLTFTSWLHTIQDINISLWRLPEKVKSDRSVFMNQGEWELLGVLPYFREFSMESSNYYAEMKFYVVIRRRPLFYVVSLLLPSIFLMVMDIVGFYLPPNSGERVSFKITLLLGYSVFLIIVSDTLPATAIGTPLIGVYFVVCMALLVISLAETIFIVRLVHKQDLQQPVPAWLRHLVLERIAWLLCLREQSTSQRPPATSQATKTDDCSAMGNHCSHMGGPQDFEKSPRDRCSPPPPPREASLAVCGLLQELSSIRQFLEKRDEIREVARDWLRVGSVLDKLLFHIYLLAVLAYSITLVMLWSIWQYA", "assay": "Selectivity interaction (Serotonin 5HT3 receptor assay, human recombinant ) EUB0000877a HTR3A"}, "[8]": {"molecular_target": "Dual specificity protein kinase CLK3 (Homo sapiens, UniProt P49761)", "sequence (P49761 whole entry, looked up)": "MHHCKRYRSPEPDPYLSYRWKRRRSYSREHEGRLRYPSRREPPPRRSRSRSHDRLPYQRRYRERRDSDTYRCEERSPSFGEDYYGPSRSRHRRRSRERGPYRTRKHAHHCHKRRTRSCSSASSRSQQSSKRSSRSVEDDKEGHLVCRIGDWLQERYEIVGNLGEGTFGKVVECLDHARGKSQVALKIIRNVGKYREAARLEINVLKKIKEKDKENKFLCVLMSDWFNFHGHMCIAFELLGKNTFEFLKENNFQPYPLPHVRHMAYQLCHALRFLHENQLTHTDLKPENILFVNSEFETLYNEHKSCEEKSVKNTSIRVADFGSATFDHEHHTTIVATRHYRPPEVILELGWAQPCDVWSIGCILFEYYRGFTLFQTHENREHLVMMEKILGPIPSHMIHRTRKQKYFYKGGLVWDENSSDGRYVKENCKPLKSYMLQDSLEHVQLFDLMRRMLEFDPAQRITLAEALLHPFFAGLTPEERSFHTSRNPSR", "assay": "Selectivity interaction (KinomeScan (DiscoverX)) EUB0001619a CLK3", "details": "at 1 µM"}, "[9]": {"molecular_target": "Ribosomal protein S6 kinase alpha-1 (Homo sapiens, UniProt Q15418)", "assay": "Selectivity interaction (ActivX KiNativ screen (ex vivo kinase selectivity in human PBMCs)) EUB0001619a RPS6KA1", "type": "cell-based", "details": "PBMC, at 1 µM"}, "[10]": {"molecular_target": "Dual specificity protein kinase CLK2 (Homo sapiens, UniProt P49760)", "sequence (P49760 whole entry, looked up)": "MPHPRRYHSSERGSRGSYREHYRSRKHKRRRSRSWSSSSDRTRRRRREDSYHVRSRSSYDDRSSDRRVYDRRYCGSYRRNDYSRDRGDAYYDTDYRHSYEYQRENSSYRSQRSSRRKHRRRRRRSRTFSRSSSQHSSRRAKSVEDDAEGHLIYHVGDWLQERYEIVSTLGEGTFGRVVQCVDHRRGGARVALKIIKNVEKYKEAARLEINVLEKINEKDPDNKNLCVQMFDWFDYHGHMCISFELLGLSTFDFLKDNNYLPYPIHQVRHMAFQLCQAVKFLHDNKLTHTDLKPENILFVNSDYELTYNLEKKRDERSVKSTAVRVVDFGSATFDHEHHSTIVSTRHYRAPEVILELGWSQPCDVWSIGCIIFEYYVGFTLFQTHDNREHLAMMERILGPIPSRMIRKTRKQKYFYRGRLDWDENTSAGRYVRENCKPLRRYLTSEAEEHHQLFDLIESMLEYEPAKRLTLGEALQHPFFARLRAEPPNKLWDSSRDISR", "assay": "Selectivity interaction (KinomeScan (DiscoverX)) EUB0001619a CLK2", "details": "at 1 µM"}, "[11]": {"molecular_target": "Protein-tyrosine kinase 6 (Homo sapiens, UniProt Q13882)", "sequence (Q13882 whole entry, looked up)": "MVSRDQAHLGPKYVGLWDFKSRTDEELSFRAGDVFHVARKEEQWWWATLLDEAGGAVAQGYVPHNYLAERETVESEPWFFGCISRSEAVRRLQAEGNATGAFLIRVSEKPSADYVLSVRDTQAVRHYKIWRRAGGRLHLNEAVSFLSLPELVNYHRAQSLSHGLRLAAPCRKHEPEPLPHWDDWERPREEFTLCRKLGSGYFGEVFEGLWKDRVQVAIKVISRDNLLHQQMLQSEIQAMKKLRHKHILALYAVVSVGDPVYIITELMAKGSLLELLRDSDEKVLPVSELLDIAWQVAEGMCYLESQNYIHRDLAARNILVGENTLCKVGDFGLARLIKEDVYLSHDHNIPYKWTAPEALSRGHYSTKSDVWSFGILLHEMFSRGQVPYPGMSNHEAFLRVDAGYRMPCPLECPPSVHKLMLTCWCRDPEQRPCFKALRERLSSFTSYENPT", "assay": "Selectivity interaction (KinomeScan (DiscoverX)) EUB0000618a PTK6", "details": "at 10 µM"}}, "data": [{"compound": "COCC(=O)NC/C=C/c1ccc2ncnc(Nc3ccc(Oc4ccc(C)nc4)c(C)c3)c2c1", "note": "[CP-724714]", "values": [{"measurement": "% of control", "setting": "[1]", "result": 94, "unit": "%"}]}, {"compound": "C=CC(=O)Nc1cc(-n2c(=O)ccc3cnc4ccc(-c5ccc(NS(C)(=O)=O)cc5)cc4c32)ccc1C", "values": [{"measurement": "% of control", "setting": "[2]; at 1 µM", "result": 100, "unit": "%"}, {"measurement": "% of control", "setting": "[2]; at 10 µM", "result": 85, "unit": "%"}]}, {"compound": "Cn1cc(-n2cnc3c(NCc4nc5cc(Cl)c(Cl)cc5[nH]4)nc(N4CCOCC4)nc32)cn1", "values": [{"measurement": "% of inhibition", "setting": "[3]", "result": 0.376, "unit": "%"}]}, {"compound": "O=C(NOC[C@H](O)CO)c1ccc(F)c(F)c1Nc1ccc(I)cc1F", "values": [{"measurement": "% of control", "setting": "[4]", "result": 91, "unit": "%"}, {"measurement": "% of control", "setting": "[5]", "result": 100, "unit": "%"}]}, {"compound": "COc1cc(Nc2nc(C)cc(-c3cnn4nc(OC)ccc34)n2)cc(C(F)(F)F)c1", "values": [{"measurement": "% of control", "setting": "[6]", "result": 99, "unit": "%"}]}, {"compound": "CCC(=O)N1CC[C@H](Nc2ncnc3c2CN(c2cnc(OC)c(C(F)(F)F)c2)CC3)C1", "note": "[LENIOLISIB]", "values": [{"measurement": "IC50", "setting": "[7]", "result": "> 30", "unit": "µM"}]}, {"compound": "N#Cc1cccc(-c2c[nH]c3ncnc(N4CCOCC4)c23)c1", "values": [{"measurement": "% of control", "setting": "[8]", "result": 78, "unit": "%"}, {"measurement": "% of inhibition", "setting": "[9]", "result": -3, "unit": "%"}, {"measurement": "% of control", "setting": "[10]", "result": 64, "unit": "%"}]}, {"compound": "O[C@H]1CC[C@H](Nc2ncc3nc(Nc4c(F)cc(F)cc4F)n([C@H]4CCOC4)c3n2)CC1", "values": [{"measurement": "% of control", "setting": "[11]", "result": 100, "unit": "%"}]}]}
